Measurements as given in ChEMBL document CHEMBL4680255, “Antioxidant activity of novel quinazolinones bearing sulfonamide: Potential radiomodulatory effects on liver tissues via NF-κB/ PON1 pathway” (Eur J Med Chem, 2020).
Calls of active or inactive are those of the source. No cut-off for these calls is given here.

Experiments:
[1] = Antioxidant activity assessed as DPPH radical scavenging activity after 30 mins under dark condition by spectrophotometric analysis; assay type: functional
[2] = Acute toxicity in ip dosed Swiss albino mouse measured after 24 hrs; assay type: organism-based; conditions: in vivo
[3] = tested on: Mus musculus; assay: (§1) Radioprotective activity in ip dosed Swiss albino mouse assessed as reduction in gamma irradiation-induced decrease in PON1 activity by measuring increase in PON1 activity in liver at 1/10 x LD50 treated at 2 hrs prior to 5 Gy gamma irradiation exposure on 1st day followed by compound treatment for next 2 days and measured at 24 hrs post last dose; assay type: functional; parameters: scale not given: the % may be the effect or the level left; conditions: time 3 day
[4] = tested on: Mus musculus; assay: Radioprotective activity in ip dosed Swiss albino mouse assessed as reduction in gamma irradiation-induced increase in NF-kappaB activity by measuring decrease in NFkappaB activity in liver at 1/10 x LD50 treated at 2 hrs prior to 5 Gy gamma irradiation exposure on 1st day followed by compound treatment for next 2 days and measured at 24 hrs post last dose by ELISA; assay type: functional; conditions: time 3 day
[5] = tested on: Mus musculus; assay: Radioprotective activity in ip dosed Swiss albino mouse assessed as reduction in gamma-irradiation-induced decline in serum albumin level at 1/10 x LD50 treated at 2 hrs prior to 5 Gy gamma irradiation exposure on 1st day followed by compound treatment for next 2 days and measured at 24 hrs post last dose; assay type: functional, organism-based; conditions: time 3.0 day
[6] = tested on: Mus musculus; assay: as §1, with “Antioxidant” for “Radioprotective”, “hepatic oxidative stress” for “decrease in PON1 activity”, “SOD” for “PON1”; assay type: functional; parameters: scale not given: the % may be the effect or the level left; conditions: time 3 day
[7] = tested on: Mus musculus; assay: Hepatoprotective activity in ip dosed Swiss albino mouse assessed as serum AST level at 1/10 x LD50 treated at 2 hrs prior to 5 Gy gamma irradiation exposure on 1st day followed by compound treatment for next 2 days and measured at 24 hrs post last dose; assay type: functional, organism-based; conditions: time 3.0 day
[8] = tested on: Mus musculus; assay: as §1, with “Antioxidant” for “Radioprotective”, “hepatic oxidative stress” for “decrease in PON1 activity”, “reduction” for “increase”, “MDA level” for “PON1 activity”; assay type: functional; conditions: time 3 day
[9] = tested on: Mus musculus; assay: as §1, with “Antioxidant” for “Radioprotective”, “hepatic oxidative stress” for “decrease in PON1 activity”, “reduction” for “increase”, “ROS level” for “PON1 activity”; assay type: functional; conditions: time 3 day
[10] = tested on: Mus musculus; assay: Hepatoprotective activity in ip dosed Swiss albino mouse assessed as serum ALT level at 1/10 x LD50 treated at 2 hrs prior to 5 Gy gamma irradiation exposure on 1st day followed by compound treatment for next 2 days and measured at 24 hrs post last dose; assay type: functional, organism-based; conditions: time 3.0 day
[11] = tested on: Mus musculus; assay: as §1, with “Antioxidant” for “Radioprotective”, “hepatic oxidative stress” for “decrease in PON1 activity”, “Zn2+ concentration” for “PON1 activity”; assay type: functional; parameters: scale not given: the % may be the effect or the level left; conditions: time 3 day

SMILES	IC50 [1] [µM]	also measured
Cc1cc(NC(=O)CSc2nc3ccccc3c(=O)n2-c2ccc(S(N)(=O)=O)cc2)no1	82.4	–
NS(=O)(=O)c1ccc(-n2c(SCC(=O)Nc3nnc(C(F)(F)F)s3)nc3ccccc3c2=O)cc1	107	–
Cn1c(NC(=O)CSc2nc3ccccc3c(=O)n2-c2ccc(S(N)(=O)=O)cc2)cc(=O)n(C)c1=O	56.4	–
CCOC(=O)N1CCC(NC(=O)CSc2nc3ccccc3c(=O)n2-c2ccc(S(N)(=O)=O)cc2)CC1	108	–
CCOC(=O)c1ccccc1NC(=O)CSc1nc2ccccc2c(=O)n1-c1ccc(S(N)(=O)=O)cc1	89.5	–
NS(=O)(=O)c1ccc(-n2c(SCC(=O)NN3CCOCC3)nc3ccccc3c2=O)cc1	66.4	–
CN1C(=O)c2ccc(NC(=O)CSc3nc4ccccc4c(=O)n3-c3ccc(S(N)(=O)=O)cc3)cc2C1=O	48.5	–
CCOc1ccc2nc(NC(=O)CSc3nc4ccccc4c(=O)n3-c3ccc(S(N)(=O)=O)cc3)sc2c1	50.5	–
CCOC(=O)c1cccc(NC(=O)CSc2nc3ccccc3c(=O)n2-c2ccc(S(N)(=O)=O)cc2)c1	65.7	–
NS(=O)(=O)c1ccc(-n2c(SCC(=O)Nc3cnccn3)nc3ccccc3c2=O)cc1	45.8	LD50 at 24 h [2]: 200 mg/kg; Activity [3]: 104.8%; inhibition (INH) [4]: 45.6%; Activity [5]: Active; Activity [6]: 157%; Activity [7]: inactive; inhibition (INH) [8]: 49%; inhibition (INH) [9]: 30.6%; Activity [10]: inactive; Activity [11]: 39.4%
O=C1O[C@H]([C@@H](O)CO)C(O)=C1O [ASCORBIC ACID]	132	–

More lines, in order of falling IC50 [1], values ahead:

IC50 [1] [µM]	SMILES	also measured
125	NS(=O)(=O)c1ccc(-n2c(SCC(=O)Nc3nccs3)nc3ccccc3c2=O)cc1	–
104	NS(=O)(=O)c1ccc(-n2c(SCC(=O)NC3CCN(Cc4ccccc4)CC3)nc3ccccc3c2=O)cc1	–
94.8	NS(=O)(=O)c1ccc(-n2c(SCC(=O)Nc3nc4ccc([N+](=O)[O-])cc4s3)nc3ccccc3c2=O)cc1	–
69.8	NS(=O)(=O)c1ccc(-n2c(SCC(=O)NCCN3CCOCC3)nc3ccccc3c2=O)cc1	–
54.4	NS(=O)(=O)c1ccc(-n2c(SCC(=O)Nc3c[nH]c(=O)[nH]c3=O)nc3ccccc3c2=O)cc1	–
